# According to ChEMBL document CHEMBL1142836 (Bioorg Med Chem Lett, 2005):
# Target: Carbonic anhydrase 9 (Homo sapiens, UniProt Q16790)
row,Ki [nM],Compound
1,31,CN1CCN(CC(=O)Nc2nnc(S(N)(=O)=O)s2)CC1
2,181,NS(=O)(=O)c1ccc(NC(=O)CN2CCOCC2)cc1
3,90,CC1CCN(CCCC(=O)Nc2ccc(S(N)(=O)=O)cc2)CC1
4,197,CC1CCN(CCC(=O)Nc2ccc(S(N)(=O)=O)cc2)CC1
5,22,NS(=O)(=O)c1nnc(NC(=O)CN2CCOCC2)s1
6,240,NS(=O)(=O)c1ccc(NC(=O)CCN2CCN(Cc3ccccc3)CC2)cc1
7,35,CC1CCN(CC(=O)Nc2nnc(S(N)(=O)=O)s2)CC1
8,163,NS(=O)(=O)c1ccc(NC(=O)CCCCN2CCOCC2)cc1
9,67,NS(=O)(=O)c1nnc(NC(=O)CN2CCN(Cc3ccccc3)CC2)s1
10,235,CN1CCN(CCC(=O)Nc2ccc(S(N)(=O)=O)cc2)CC1
11,184,NS(=O)(=O)c1ccc(NC(=O)CCN2CCOCC2)cc1

row,Compound,Ki [nM]
1,NS(=O)(=O)c1ccc(NC(=O)CCN2CCC(Cc3ccccc3)CC2)cc1,248
2,NS(=O)(=O)c1ccc(NC(=O)CCCN2CCOCC2)cc1,246
3,CN1CCN(CCC(=O)Nc2nnc(S(N)(=O)=O)s2)CC1,33
